Test results reported in patent US5942521A, “Quinolinone derivative and anti-allergic agent with said quinolinone derivative as the active ingredient” (Dainippon Ink and Chemicals, Inc., priority 1996, dated 1999).

Experiments:
Assay type in all cases: in vivo
[1] = test system: contact dermatitis induced by picryl chloride; assay: Effect on contact dermatitis induced by picryl chloride in mice; conditions: Mus musculus, po, read-out: Inhibition (%) of increase of ear thickness; for inhibition in vivo at 20 mg/kg: test compounds, 20 mg/kg p.o. 12 hours after challenge, ear thickness at 24 hours
Protocol: Effect on contact dermatitis induced by picryl chloride in mice
The delayed type hypersensitization is inhibited by steroid, but can not be effected by known anti-allergic agents. In the following, the method of the pharmacological test will be explained.
Method: Mice, shaved their abdominal skin on previous day, were immunized by applying 0.1 ml of acetone containing 7 mg of picryl chloride to the skin of the abdomen. 7 days after immunization, the thickness of the ear was measured with a dial thickness gauge, then mice were challenged by painting […] of 1% picryl chloride olive oil solution to each side skin of left ear. 24 hours after challenge, the thickness of the left ear was measured again. The compounds of the present invention (test compounds) suspended in 0.5% MC were forcibly administered orally at a dose of 20 mg/kg 12 hours after challenge. As vehicle control group, only 0.5% MC solution was administered orally, and as positive control group, Prednisolone, steroid hormone, was administered orally at a dose of 10 mg/kg and as negative control group, Tranilast was administered orally at a dose of 200 mg/kg.
Increase (%)=(A-B)/B×100 (Equation 2)
A: thickness of the ear at 24 hours after challenge
B: thickness of the ear before challenge
Inhibition (%)=(C-D)/C×100 (Equation 3)
C: The increase (%) in vehicle control group
D: The increase (%) in test compounds group, positive control group

[2] = test system: immediate type asthmatic response; assay: Effect on experimental immediate type asthma model in guinea pigs; conditions: airway resistance 1 minute after challenge
Excerpt: (§1) Effect on experimental immediate and delayed type asthma model in guinea pigs
(§2) The asthma is typical allergic disease and we carried out this pharmacological test by experimental asthmatic model in guinea pigs in order to confirm that the compounds of the present invention, compound 21, 41 and 46, suppress immediate and delayed type asthmatic response. In the following, the method of the pharmacological test will be explained.
(§3) Method: Male hartley guinea pigs were sensitized by exposured aerosolized ovalbumine (OVA) (1% in saline) for 10 minutes per a day at eight times. The aerosol was generated by an ultrasonic nebulizer (NE-U12, Omuron inc.). One week after final sensitization, the animals were challenged with inhalation of OVA (2% in saline) for 5 minutes. The animals were pretreated with metyrapone (10 mg/kg, i.v.) at 1 and 4 hours before the challenge, and pyrilamine (10 mg/kg, i.p.) at 30 minutes before the challenge. airway resistance in the conscious animals were measured for 1 minute with PULMOS-1(made in Medical Interface Project Station Inc.) at 1 minute, 2, 4, 5, 6, 7, 8 and 23 to 24 hours after the challenge. Compound 21, 41 and 46 (test compound) suspended in 0.5% methylcellulose (MC) solution were given orally at doses of 5, 10 and 20 mg/kg 1 hour before and 3 hours after the challenge. As a positive control group, Prednisolone was given orally at a dose of 10 mg/kg 2 hours and 16 hours before the challenge. As vehicle control group, only 0.5% MC solution was given orally.
(§4) The evaluation of the effect of the compounds on immediate and delayed type asthmatic response was undertaken with percentage of change in airway resistance 1 minute after the challenge and the area under the response curve for percentage of change in airway resistance between 4 and 8 hours after the challenge, respectively. The inhibition (%) of the compounds for immediate and delayed type asthmatic response was calculated according to equation 4 and the result was shown in table 3. Each experimental group consisted of 8 guinea pigs.
(§5) Inhibition (%)=(A-B)/A×100 (equation 4)
(§6) A: percentage of change in airway resistance in vehicle control group
(§7) B: percentage of change in airway resistance in test compound group or positive control group

[3] = test system: delayed type asthmatic response; assay: Effect on experimental delayed type asthma model in guinea pigs; conditions: AUC of airway resistance 4-8 hours after challenge
Excerpt: as §1, §2, §3, §4, §5, §6, §7

[4] = test system: passive cutaneous anaphylaxis (PCA) reaction; assay: Effect on homologous passive cutaneous anaphylaxis (PCA) reaction in rats; conditions: Rattus norvegicus, po, 0.5 h; test compounds, 100 mg/kg p.o., 1 hour before induction of anaphylaxis, male wistar rats
Protocol: Effect on homologous passive cutaneous anaphylaxis (PCA) reaction in rats
This experimental animal model is caused by immediate type allergic reaction, namely, antigen-antibody reaction. In the following, the method of this pharmacological test will be explained.
Method: Male wistar rats (9 weeks old) were intradermally administered 0.05 ml of anti-serum against dinitrophenylated ascaris (DNP-As) into two sites on the shaved dorsal skin. 48 hours later, aminoquinolinone derivatives (test compounds) suspended in 0.5% methylcellulose (MC) were given orally at a dose of 100 mg/kg to the animals. 1 hour after administration of Test compounds, the animals were induced anaphylaxis by injection of saline (1 ml) dissolving 1 mg of trinitrophenylated ascaris (TNP-As) and 5 mg of Evans Blue into the tail vein of the animals. 30 minutes after induction of anaphylaxis, animals were anesthetized by ether and killed by bleeding, and were flayed dorsal skin. The leakage of dye was assessed by measuring the diameter (mean of shortest and longest diameter) of the blue spot on the inside surface of dorsal skin. As vehicle control group, only 0.5% MC solution was administered orally, and as positive control group, Tranilast suspended in 0.5% MC were administered orally at a dose of 200 mg/kg to the animals with the same method as the test compounds groups, The inhibition (%) of PCA reaction was calculated according to equation 1 and the result was shown in Table 1. Each experimental group consisted of 5 rats.
In the conditions of this experiment, it was considered that the compound, which inhibited PCA reaction by over forty (40) percent against that in vehicle control group, was evidently effective for immediate type allergy.
Inhibition (%)=(A-B)/A×100 (Equation 1)
A: leakage of dye in vehicle control group
B: leakage of dye in test compound group or positive control group

[5] = Prednisolone 10 mg/kg p.o. 2 hours and 16 hours before challenge
[6] = 5 mg/kg p.o. 1 hour before and 3 hours after challenge
[7] = 10 mg/kg p.o. 1 hour before and 3 hours after challenge
[8] = 20 mg/kg p.o. 1 hour before and 3 hours after challenge

C[C@]12C=CC(=O)C=C1CC[C@@H]1[C@@H]2[C@@H](O)C[C@@]2(C)[C@H]1CC[C@]2(O)C(=O)CO [Prednisolone, reference compound]
inhibition in vivo at 10 mg/kg ([1]; 24 h): 53% | inhibition (%), immediate type asthma [2, 5]: 35% | inhibition (%), delayed type asthma [3, 5]: 51%

CCCCCCCCOc1c(O)c2ccc(NC(=O)/C=C/c3cc(OC)c(O)c(OC)c3)cc2n(C)c1=O [compound 41, 7-(3,5-dimethoxy-4-hydroxycinnamoylamino)-3-octyloxy-4-hydroxy-1-methyl-2(1H)-quinolinone]
inhibition in vivo at 100 mg/kg [4]: 53% | inhibition in vivo at 20 mg/kg [1]: 50% | inhibition (%), immediate type asthma [2, 6]: 26% | inhibition (%), immediate type asthma [2, 7]: 31% | inhibition (%), immediate type asthma [2, 8]: 43% | inhibition (%), delayed type asthma [3, 6]: 39% | inhibition (%), delayed type asthma [3, 7]: 54% | inhibition (%), delayed type asthma [3, 8]: 84%

C=CCNc1ccc2c(O)c(OCCCCCCCC)c(=O)n(C)c2c1 [compound 46, 7-(2-propenylamino)-3-octyloxy-4-hydroxy-1-methyl-2(1H)-quinolinone]
inhibition in vivo at 100 mg/kg [4]: 46% | inhibition in vivo at 20 mg/kg [1]: 55% | inhibition (%), immediate type asthma [2, 6]: 30% | inhibition (%), immediate type asthma [2, 7]: 28% | inhibition (%), immediate type asthma [2, 8]: 33% | inhibition (%), delayed type asthma [3, 6]: 32% | inhibition (%), delayed type asthma [3, 7]: 44% | inhibition (%), delayed type asthma [3, 8]: 53%

CCCCCCOc1c(O)c2ccc(N)cc2n(C)c1=O [compound 21, 7-amino-3-hexyloxy-4-hydroxy-1-methyl-2(1H)-quinolinone]
inhibition in vivo at 100 mg/kg [4]: 60% | inhibition in vivo at 20 mg/kg [1]: 51% | inhibition (%), immediate type asthma [2, 6]: 20% | inhibition (%), immediate type asthma [2, 7]: 30% | inhibition (%), immediate type asthma [2, 8]: 31% | inhibition (%), delayed type asthma [3, 6]: 23% | inhibition (%), delayed type asthma [3, 7]: 39% | inhibition (%), delayed type asthma [3, 8]: 48%

CCCCCCCCOc1c(O)c2ccc(NC(=O)/C=C/c3ccc(O)c(OC)c3)cc2n(C)c1=O [compound 45, 7-(4-hydroxy-3-methoxycinnamoylamino)-3-octyloxy-4-hydroxy-1-methyl-2(1H)-quinolinone]
inhibition in vivo at 100 mg/kg [4]: 41% | inhibition in vivo at 20 mg/kg [1]: 44%

CCCCCCNc1ccc2c(O)c(OC)c(=O)n(C)c2c1 [compound 27, 7-hexylamino-3-methoxy-4-hydroxy-1-methyl-2(1H)-quinolinone]
inhibition in vivo at 100 mg/kg [4]: 45% | inhibition in vivo at 20 mg/kg [1]: 46%

CCCCNc1ccc2c(OC)c(O)c(=O)[nH]c2c1 [compound 17, 7-butylamino-3-hydroxy-4-methoxy-2(1H)-quinolinone]
inhibition in vivo at 100 mg/kg [4]: 45% | inhibition in vivo at 20 mg/kg [1]: 43%
